Measured values from patent publication US12371428B2 (Exelixis, Inc., priority 2019, dated 2025).

Legend:
[1] = target: Human KDR (residues 790-1356) (Homo sapiens (Human), UniProt P35968); experiment: Human KDR kinase assay, HTRF KinEase (Example B-2); format: biochemical; details: protocol of Example B-2
How it was run: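 Human KDR residues 790-1356 (0.1 ng/well) in buffer with 5 mM MgCl2, 1 mM MnCl2, 1 mM DTT, biotinylated peptide substrate, ATP at Km (4.0 μM), 3% DMSO, 10 compound concentrations; 40 min, room temperature. EDTA stop, streptavidin-XL665/Eu-TK antibody HTRF read 665/620 nm; 4-parameter IC50.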

[2] = target: Met (phospho-Met, HGF-stimulated PC-3 prostate cancer cells) (Homo sapiens (Human), UniProt P08581); experiment: Met autophosphorylation ELISA in PC-3 cells (Example F); format: cell-based; details: cellular activity; Met autophosphorylation ELISA in PC-3 cells; read-out: c-Met IC50
Met (phospho-Met, HGF-stimulated PC-3 prostate cancer cells), sequence (P08581 25-1390): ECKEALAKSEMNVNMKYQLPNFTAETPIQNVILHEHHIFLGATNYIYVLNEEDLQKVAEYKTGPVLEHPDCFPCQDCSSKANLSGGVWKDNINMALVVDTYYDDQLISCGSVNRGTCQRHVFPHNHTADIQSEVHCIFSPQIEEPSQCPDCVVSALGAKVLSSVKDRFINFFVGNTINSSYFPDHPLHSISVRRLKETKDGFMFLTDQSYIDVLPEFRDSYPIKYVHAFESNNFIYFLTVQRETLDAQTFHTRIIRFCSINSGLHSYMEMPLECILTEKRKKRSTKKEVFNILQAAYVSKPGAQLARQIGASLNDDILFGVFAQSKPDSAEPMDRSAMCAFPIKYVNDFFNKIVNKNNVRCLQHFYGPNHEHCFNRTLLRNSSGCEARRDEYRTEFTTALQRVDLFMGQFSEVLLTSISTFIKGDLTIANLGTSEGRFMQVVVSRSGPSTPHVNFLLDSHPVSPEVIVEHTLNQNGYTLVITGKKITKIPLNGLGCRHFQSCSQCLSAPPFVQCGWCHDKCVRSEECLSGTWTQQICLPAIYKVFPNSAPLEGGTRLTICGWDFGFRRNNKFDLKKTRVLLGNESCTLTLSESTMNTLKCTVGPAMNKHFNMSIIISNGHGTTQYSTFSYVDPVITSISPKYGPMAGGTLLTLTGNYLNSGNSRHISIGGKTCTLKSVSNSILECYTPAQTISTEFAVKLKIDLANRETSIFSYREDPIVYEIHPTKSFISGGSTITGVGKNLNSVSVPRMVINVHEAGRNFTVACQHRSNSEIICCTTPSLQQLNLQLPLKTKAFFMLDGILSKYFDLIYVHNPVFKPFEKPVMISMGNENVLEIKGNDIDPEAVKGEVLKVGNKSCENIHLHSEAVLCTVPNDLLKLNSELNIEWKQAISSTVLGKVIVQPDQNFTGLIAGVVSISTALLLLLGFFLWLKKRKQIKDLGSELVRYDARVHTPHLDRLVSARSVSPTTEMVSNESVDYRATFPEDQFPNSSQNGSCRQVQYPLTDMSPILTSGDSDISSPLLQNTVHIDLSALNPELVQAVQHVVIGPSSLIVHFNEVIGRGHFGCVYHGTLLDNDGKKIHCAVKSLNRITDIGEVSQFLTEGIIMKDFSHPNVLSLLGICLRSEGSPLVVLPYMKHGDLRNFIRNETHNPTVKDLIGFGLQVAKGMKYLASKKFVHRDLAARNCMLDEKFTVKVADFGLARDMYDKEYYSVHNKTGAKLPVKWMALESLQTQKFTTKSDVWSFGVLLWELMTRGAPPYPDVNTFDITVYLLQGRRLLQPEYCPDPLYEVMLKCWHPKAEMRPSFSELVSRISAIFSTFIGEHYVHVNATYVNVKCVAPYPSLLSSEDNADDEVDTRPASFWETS
How it was run: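 Serum-starved (3 h) PC-3 cells were treated 1 h with compounds (8-point curve, 0.3% DMSO), then stimulated with 100 ng/mL human HGF for 10 min. Lysate phospho-Met (panTyr) was measured by sandwich ELISA, normalised to DMSO and reference-inhibitor controls. IC50 came from 4-parameter logistic fit.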

[3] = target: Human MER (residues 528-999) (Homo sapiens (Human), UniProt Q12866); experiment: Human Mer kinase assay, HTRF KinEase (Example C-2); format: biochemical; details: protocol of Example C-2
Human MER (residues 528-999), sequence (Q12866 528-999): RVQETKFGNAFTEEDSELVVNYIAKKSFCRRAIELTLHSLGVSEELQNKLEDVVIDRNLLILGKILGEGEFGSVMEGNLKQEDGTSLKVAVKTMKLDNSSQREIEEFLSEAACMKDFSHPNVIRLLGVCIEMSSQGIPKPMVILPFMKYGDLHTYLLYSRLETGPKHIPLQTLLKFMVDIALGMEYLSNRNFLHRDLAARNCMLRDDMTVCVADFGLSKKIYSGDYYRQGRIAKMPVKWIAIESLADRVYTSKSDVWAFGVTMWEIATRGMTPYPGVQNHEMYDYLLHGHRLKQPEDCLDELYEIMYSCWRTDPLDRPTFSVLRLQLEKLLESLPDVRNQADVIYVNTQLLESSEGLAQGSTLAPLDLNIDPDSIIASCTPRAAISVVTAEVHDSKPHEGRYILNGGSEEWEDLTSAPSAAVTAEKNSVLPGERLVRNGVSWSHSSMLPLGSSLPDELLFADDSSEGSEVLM
How it was run: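 Recombinant MER 528-999 (1 ng/well) in buffer with 5 mM MgCl2 and 1 mM DTT was reacted with biotinylated peptide and ATP at Km (40 μM) for 60 min at room temperature. EDTA stop with SA-XL665 and Eu3+ TK antibody, then 665/620 nm HTRF read; IC50 from 4-parameter fit.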

Human KDR (residues 790-1356), sequence (P35968 790-1356): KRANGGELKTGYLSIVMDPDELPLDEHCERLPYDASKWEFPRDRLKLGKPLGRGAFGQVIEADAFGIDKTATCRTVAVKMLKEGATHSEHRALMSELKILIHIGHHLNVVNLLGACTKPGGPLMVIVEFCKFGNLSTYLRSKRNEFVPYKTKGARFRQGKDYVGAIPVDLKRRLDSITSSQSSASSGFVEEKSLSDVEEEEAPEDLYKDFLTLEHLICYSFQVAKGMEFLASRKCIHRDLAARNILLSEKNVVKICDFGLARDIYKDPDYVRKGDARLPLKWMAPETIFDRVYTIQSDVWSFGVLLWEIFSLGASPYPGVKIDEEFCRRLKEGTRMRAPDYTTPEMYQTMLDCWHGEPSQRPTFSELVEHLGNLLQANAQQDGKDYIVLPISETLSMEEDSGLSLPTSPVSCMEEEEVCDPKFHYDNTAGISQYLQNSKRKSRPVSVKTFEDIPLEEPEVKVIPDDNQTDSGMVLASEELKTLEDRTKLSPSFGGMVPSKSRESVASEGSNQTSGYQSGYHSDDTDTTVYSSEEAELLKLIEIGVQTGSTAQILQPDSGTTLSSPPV

| IC50 [1] | IC50 [2] | IC50 [3] | SMILES |
| --- | --- | --- | --- |
| < 100 nM | < 100 nM | < 100 nM | COCCOc1cc2nccc(Oc3ccc(NC(=O)c4c(COC)nc(C)c(-c5ccc(F)cc5)c4O)cc3F)c2nc1OC [Compound 482, N-[3-fluoro-4-[[6-methoxy-7-(2-methoxyethoxy)-1,5-naphthyridin-4-yl]oxy]phenyl]-5-(4-fluorophenyl)-4-hydroxy-2-(methoxymethyl)-6-methylpyridine-3-carboxamide] |
| > 300 nM | < 100 nM | < 100 nM | COc1cc2nccc(Oc3ccc(NC(=O)c4cn(C)c(CF)c(-c5ccc(F)cc5)c4=O)cc3)c2nc1OC [Compound 560, N-[4-[(6,7-Dimethoxy-1,5-naphthyridin-4-yl)oxy]phenyl]-6-(fluoromethyl)-5-(4-fluorophenyl)-1-methyl-4-oxopyridine-3-carboxamide] |
| > 300 nM | < 100 nM | < 100 nM | COc1cc2nccc(Oc3ccc(NC(=O)c4cc(C)nn(-c5ccc(F)cc5)c4=O)cc3F)c2nc1OC [Compound 519, N-[4-[(6,7-dimethoxy-1,5-naphthyridin-4-yl)oxy]-3-fluorophenyl]-2-(4-fluorophenyl)-6-methyl-3-oxopyridazine-4-carboxamide] |
| < 100 nM | < 100 nM | < 100 nM | C=C(C)c1cnc2c(Oc3ccc(NC(=O)c4cnc(C)c(-c5ccc(F)cc5)c4O)cc3F)ccnc2c1 [Compound 456, 5-(4-fluorophenyl)-N-[3-fluoro-4-[(7-prop-1-en-2-yl-1,5-naphthyridin-4-yl)oxy]phenyl]-4-hydroxy-6-methylpyridine-3-carboxamide] |
| 100 to 300 nM | < 100 nM | < 100 nM | COc1cc2nccc(Oc3ccc(NC(=O)c4c(C)n(C)cc(-c5ccc(F)cc5C)c4=O)cc3F)c2nc1OC [Compound 481, N-[4-[(6,7-dimethoxy-1,5-naphthyridin-4-yl)oxy]-3-fluorophenyl]-5-(4-fluoro-2-methylphenyl)-1,2-dimethyl-4-oxopyridine-3-carboxamide] |
| > 300 nM | < 100 nM | < 100 nM | CNc1nccc2c(Oc3ccc(NC(=O)c4cnc(C)n(-c5ccc(F)cc5)c4=O)cc3)ccnc12 [Compound 543, 1-(4-fluorophenyl)-2-methyl-N-[4-[[8-(methylamino)-1,7-naphthyridin-4-yl)oxy]phenyl]-6-oxopyrimidine-5-carboxamide] |
| < 100 nM | < 100 nM | < 100 nM | C=C(C)c1cnc2c(Oc3ccc(NC(=O)c4c(C)cc(C)n(-c5ccc(F)cc5)c4=O)cc3F)ccnc2c1 [Compound 457, 1-(4-fluorophenyl)-N-[3-fluoro-4-[(7-prop-1-en-2-yl-1,5-naphthyridin-4-yl)oxy]phenyl]-4,6-dimethyl-2-oxopyridine-3-carboxamide] |
| < 100 nM | < 100 nM | < 100 nM | COCCOc1cnc2c(Oc3ccc(NC(=O)c4c(C)nc(C)c(-c5ccc(F)cc5)c4O)cc3F)ccnc2c1 [Compound 555, N-[3-Fluoro-4-[[7-(2-methoxyethoxy)-1,5-naphthyridin-4-yl]oxy]phenyl]-5-(4-fluorophenyl)-4-hydroxy-2,6-dimethylpyridine-3-carboxamide] |
| < 100 nM | < 100 nM | < 100 nM | COc1cnc2c(Oc3ccc(NC(=O)c4nnc(C)c(-c5ccc(F)cc5)c4OC)cc3)ccnc2c1 [Compound 515, 5-(4-fluorophenyl)-4-methoxy-N-[4-[(7-methoxy-1,5-naphthyridin-4-yl)oxy]phenyl]-6-methylpyridazine-3-carboxamide] |
| 100 to 300 nM | < 100 nM | < 100 nM | COc1nc2c(Oc3ccc(NC(=O)c4c(C)nc(C)c(-c5ccc(F)cc5)c4O)cc3F)ccnc2cc1C [Compound 459, N-[3-fluoro-4-[(6-methoxy-7-methyl-1,5-naphthyridin-4-yl)oxy]phenyl]-5-(4-fluorophenyl)-4-hydroxy-2,6-dimethylpyridine-3-carboxamide] |
